Values belong to the compound of their own block, whether it stands above or below them.
How the values were obtained:
MDA-MB-231 [1] = assay: MDA-MB-231 xenograft in BalB/c nude mouse: survival rate; assay type: in vivo; conditions: paclitaxel only
Procedure: To investigate survival rates of the paclitaxel-only administration group and the group co-administered with paclitaxel and the peptide of Example 1, experiments described below were performed. 5×10^6 cells/head of the human triple negative breast cancer cell line MDA-MB-231 were mixed with Matrigel and PBS (1:1). 100 ul of the mixture was injected into the right third fat pad of 7-week-old female BalB/c nude mouse. After the transplantation, drug administration started from an average tumor size of 70 mm^3. Paclitaxel 20 mg/kg was administered once weekly, and the peptide 100 mg/kg of Example 1 was administered subcutaneously 3 times weekly at 48-hour intervals, 48 hours after the paclitaxel administration. Each test group was administered for 12 weeks and animal survival was observed daily. FIG. 10 is a graph illustrating survival rates over time after sample administration in animal experimentation. In FIG. 10, the x-axis represents the elapsed time (days) after administration and the y-axis represents survival rates (%). […] In the case of the group co-administered with the peptide of Example 1, the first deceased mouse occurred on Day 60 of administration.

4T1 cells = assay: Syngeneic model implanted with paclitaxel-resistant 4T1 cells: tumor volume, Western blot of cleaved PARP and LC3II; assay type: in vivo, mouse; conditions: paclitaxel only
Procedure: Cell death and autophagy marker changes were determined by the Western blot method, using a syngeneic model implanted with 4T1 cells (American Type Culture Collection (ATCC)), which are mouse triple negative breast cancer tumor cells resistant to paclitaxel. The drug administration was started, when the tumor volume was reached to 70 mm^3 after a fat pad of Balb/c mice (6 weeks old, female) was transplanted with 4T1 cells in a concentration of 1×10^6 cells/head. For Week 1, paclitaxel 20 mg/kg was administered on Day 1 and Day 2, and the peptide (10, 100 mg/kg) of Example 1 was co-administered on Day 3, Day 5, and Day 7. In addition, the same process was performed for each of Week 2, and Week 3 (n=3). The tumor volumes were measured daily because the tumors grew very quickly. The changes in cleaved PARP, which is a cell death marker, and the changes in LC3II, which is an autophagy marker, in tumors were analyzed after necropsy on the day after the end of the 3-week administration, by a Western blot test.
FIG. 5 is a graph illustrating the results of tumor volume measurements according to the number of days after treatment in animal experimentation. In FIG. 5, the x-axis represents the number of days elapsed after treatment and the y-axis represents the tumor volume change (mm^3).
In addition, the changes in cleaved PARP, which is a cell death marker, are shown in FIG. 6, and the changes in LC3II, which is an autophagy marker, are shown in FIG. 7. FIG. 6 is a graph showing the changes in expression of cleaved PARP, which is a cell death marker, for each treatment group in animal experimentation, and FIG. 7 is a graph showing the changes in expression of LC3II, which is an autophagy marker, for each treatment group in animal experimentation.

MDA-MB-231 [2] = assay: MDA-MB-231 fat pad xenograft in athymic nude mouse: tumor volume and weight; assay type: in vivo, human; conditions: paclitaxel only
Procedure: 5×10^6 cells/head of the human triple negative breast cancer cell line MDA-MB-231 (American Type Culture Collection (ATCC)) were mixed with Matrigel and PBS (1:1). 100 ul of the mixture was injected into the right third fat pad of 7-week-old female athymic nude mouse. After the transplantation, drug administration started from an average tumor size of 80 mm^3. Paclitaxel 20 mg/kg was administered on Day 0 and on Day 1. That is, the paclitaxel 20 mg/kg was administered a total of two times. Then, the peptide of Example 1 was administered in a dose of 100 mg/kg on Day 2, Day 4, and Day 6. That is, the peptide of Example 1 was administered a total of three times. Tumor volumes were measured 3 times a week for 3 weeks after administration of the first dose. Tumor weights were measured by necropsy after the end of the experiment. For each group, ten mice were used.
Tumor volume changes over time for each group are shown in FIG. 8, and tumor weight on the eighteenth day after the administration of the first dose for each group is shown in FIG. 9. FIG. 8 is a graph illustrating the changes in tumor volume over time after sample administration in animal experimentation. In FIG. 8, the x-axis represents the number of days elapsed after the start of administration and the y-axis represents the tumor volume change (mm^3). FIG. 9 is a graph illustrating a tumor weight for each test group in animal experimentation. In FIG. 9, the x-axis represents test groups and the y-axis represents tumor weights (mg).

[3] = Stability test: HPLC relative purity of peptide dissolved in buffer, by pH and temperature; assay type: physicochemical
Procedure: For Example 1 and Comparative Example 1, stability tests according to pH for each temperature were performed.
Stability tests for each peptide were performed by liquid chromatography purity analysis for each temperature and each pH according to analysis timing (initial, 24 hours, 130 hours). […] Samples were analyzed by injecting 20 ul of each sample with an auto-sample injector, and the analysis column was Inspire C18 (4.6×250 mm, […], 12 nm) manufactured by Dikma. The analysis temperature was 40° C., and a UV wavelength of 215 nm was used.
On the basis of the HPLC analysis results, relative purity was calculated for Comparative Example 1 and Example 1 for each storage condition. The relative purity is the percentage of measured purity changing according to the storage period, with the initial purity being set to 100% for each sample. FIGS. 1 and 2 are graphs showing the results of stability tests for Example and Comparative Example stored at a temperature of 25° C., in which FIG. 1 is a graph of a test result for 24 hours of storage, and FIG. 2 is a graph of a test result for 130 hours of storage. FIGS. 3 and 4 are graphs showing the results of stability tests for Example and Comparative Example stored at 40° C., in which FIG. 3 is a graph of a test result for 24 hours of storage, and FIG. 4 is a graph of a test result for 130 hours of storage. In each graph, the x-axis represents the test group by pH and the y-axis represents the relative purity […].

[4] = eighteenth day after first dose

Compound: CC(=O)O[C@H]1C(=O)[C@@]2(C)[C@H]([C@H](OC(=O)c3ccccc3)[C@]3(O)C[C@H](OC(=O)[C@H](O)[C@@H](NC(=O)c4ccccc4)c4ccccc4)C(C)=C1C3(C)C)[C@]1(OC(C)=O)CO[C@@H]1C[C@@H]2O [paclitaxel, reference compound]
Day of administration on which the first deceased mouse occurred (MDA-MB-231 [1]; 20 mg/kg once weekly): 21 days | Survival rate after the end of the experiment (MDA-MB-231 [1]; 12 weeks): 30% | Reduction in tumor volume compared to the control group (4T1 cells; 20 mg/kg, Balb/c mice): insignificant reduction in tumor volume | Increase in LC3II expression level in tumor compared to control group (4T1 cells; Western blot after 3-week administration): 2.4 fold | CR (mice in which the tumor disappeared) (MDA-MB-231 [2]; 20 mg/kg Day 0 and Day 1, ten mice): 10% | Reduction in tumor volume compared to control group (MDA-MB-231 [2]; [4]): 33% | Reduction in tumor weight compared to control group (MDA-MB-231 [2]; [4]): 34.5% | Day on which the tumor disappeared (MDA-MB-231 [2]; one mouse): 16 days

Relative purity ([3]; pH 2, 25 ± 2° C., RH 60 ± 5%, storage 0 hours (initial set to 100%)): 100.0% | Relative purity ([3]; pH 2, 25 ± 2° C., RH 60 ± 5%, storage 24 hours): 79.0% | Relative purity ([3]; pH 2, 25 ± 2° C., RH 60 ± 5%, storage 130 hours): 25.0% | Relative purity ([3]; pH 2, 40 ± 2° C., RH 75 ± 5%, storage 0 hours (initial set to 100%)): 100.0% | Relative purity ([3]; pH 2, 40 ± 2° C., RH 75 ± 5%, storage 24 hours): 27.6% | Relative purity ([3]; pH 2, 40 ± 2° C., RH 75 ± 5%, storage 130 hours): 0.3% | Relative purity ([3]; pH 5, 25 ± 2° C., RH 60 ± 5%, storage 0 hours (initial set to 100%)): 100.0% | Relative purity ([3]; pH 5, 25 ± 2° C., RH 60 ± 5%, storage 24 hours): 77.9% | Relative purity ([3]; pH 5, 25 ± 2° C., RH 60 ± 5%, storage 130 hours): 21.7% | Relative purity ([3]; pH 5, 40 ± 2° C., RH 75 ± 5%, storage 0 hours (initial set to 100%)): 100.0% | Relative purity ([3]; pH 5, 40 ± 2° C., RH 75 ± 5%, storage 24 hours): 21.8% | Relative purity ([3]; pH 5, 40 ± 2° C., RH 75 ± 5%, storage 130 hours): 0.1% | Relative purity ([3]; pH 7, 25 ± 2° C., RH 60 ± 5%, storage 0 hours (initial set to 100%)): 100.0% | Relative purity ([3]; pH 7, 25 ± 2° C., RH 60 ± 5%, storage 24 hours): 28.5% | Relative purity ([3]; pH 7, 25 ± 2° C., RH 60 ± 5%, storage 130 hours): 0.1% | Relative purity ([3]; pH 7, 40 ± 2° C., RH 75 ± 5%, storage 0 hours (initial set to 100%)): 100.0% | Relative purity ([3]; pH 7, 40 ± 2° C., RH 75 ± 5%, storage 24 hours): 0.2% | Relative purity ([3]; pH 7, 40 ± 2° C., RH 75 ± 5%, storage 130 hours): 0.0% | Relative purity ([3]; pH 9, 25 ± 2° C., RH 60 ± 5%, storage 0 hours (initial set to 100%)): 100.0% | Relative purity ([3]; pH 9, 25 ± 2° C., RH 60 ± 5%, storage 24 hours): 50.2% | Relative purity ([3]; pH 9, 25 ± 2° C., RH 60 ± 5%, storage 130 hours): 2.4% | Relative purity ([3]; pH 9, 40 ± 2° C., RH 75 ± 5%, storage 0 hours (initial set to 100%)): 100.0% | Relative purity ([3]; pH 9, 40 ± 2° C., RH 75 ± 5%, storage 24 hours): 8.5% | Relative purity ([3]; pH 9, 40 ± 2° C., RH 75 ± 5%, storage 130 hours): 0.0%
Compound: QLHLD [Comparative Example 1, reference compound]
Stability (summary in words) ([3]; liquid state, pH 2-9, 25 and 40° C., up to 130 hours): in some cases, the samples were not stable
